Drawing on patent US20250388565A1, “ESTROGEN RECEPTOR ALPHA DEGRADERS AND METHODS OF USE THEREOF” (Relay Therapeutics, Inc., priority 2022, published 2025), this text covers DC50 for 19 compounds.

A value given as a limit tells only on which side of the number the result lay.

One may read the DC50 as the concentration giving 50% degradation.

The experiment deals with T1, ERα protein (HiBiT-tagged) in ESR1_HiBiT KI MCF7 cells (Homo sapiens, UniProt P03372).
T1 sequence (P03372 1-595): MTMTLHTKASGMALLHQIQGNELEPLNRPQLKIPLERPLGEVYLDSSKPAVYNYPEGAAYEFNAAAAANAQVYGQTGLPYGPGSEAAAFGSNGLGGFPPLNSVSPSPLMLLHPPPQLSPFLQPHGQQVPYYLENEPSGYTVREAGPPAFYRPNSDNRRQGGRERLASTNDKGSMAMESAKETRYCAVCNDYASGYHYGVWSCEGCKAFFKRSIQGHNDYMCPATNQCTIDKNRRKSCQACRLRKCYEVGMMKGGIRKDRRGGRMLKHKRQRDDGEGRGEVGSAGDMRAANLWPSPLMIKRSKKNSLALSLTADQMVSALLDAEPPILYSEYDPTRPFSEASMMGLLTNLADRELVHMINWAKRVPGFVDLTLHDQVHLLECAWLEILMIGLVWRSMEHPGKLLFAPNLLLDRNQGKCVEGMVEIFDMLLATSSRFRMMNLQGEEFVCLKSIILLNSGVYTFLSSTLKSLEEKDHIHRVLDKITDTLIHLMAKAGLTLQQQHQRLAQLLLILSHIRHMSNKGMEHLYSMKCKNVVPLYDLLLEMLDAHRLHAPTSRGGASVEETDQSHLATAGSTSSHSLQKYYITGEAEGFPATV
Nature of the experiment: Nano Glo HiBiT Lytic Degradation Assay. In kind it is cell-based. Conditions: 6 hours with compound, 14-point dose response 1:3, bell-shape curve fit, half-maximal effect of first Hill model, read-out: MCF7 ESR1 HiBiT - (DC50). Summed up: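 HiBiT-tagged endogenous ERα remaining in MCF7 knock-in cells was quantified by lytic luminescence after a 6 h treatment. DC50 values derive from a bell-shaped curve, taken at the first Hill component's half-maximal effect.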
`NC(=O)CCC(C(=O)O)N1Cc2cc(N3CCN(CC4CCN(c5ccc([C@@H]6c7ccc(O)cc7CO[C@@H]6c6ccccc6)cc5)CC4)CC3)ccc2C1=O` (stereo partly shown) [Compound I-400]: the DC50 turned out to be 7.75 nM.

`Cc1ccc2c(c1)CC[C@H](c1ccccc1)[C@@H]2c1ccc(N2CCC(CN3CCN(c4ccc5c(c4)CN([C@H]4CCC(=O)NC4=O)C5=O)CC3)CC2)cc1` [Compound I-50, (S)-3-(5-(4-((1-(4-((1R,2S)-6-methyl-2-phenyl-1,2,3,4-tetrahydronaphthalen-1-yl)phenyl)piperidin-4-yl)methyl)piperazin-1-yl)-1-oxoisoindolin-2-yl)piperidine-2,6-dione]: the DC50 is at least 10000 nM.

`O=C1CC[C@H](N2Cc3cc(N4CCN(CC5CCN(c6ccc([C@@H]7c8ccc(O)cc8CC[C@@H]7c7ccncc7)cc6)CC5)CC4)ccc3C2=O)C(=O)N1` [Compound I-132, (S)-3-(5-(4-((1-(4-((1R,2S)-6-hydroxy-2-(pyridin-4-yl)-1,2,3,4-tetrahydronaphthalen-1-yl)phenyl)piperidin-4-yl)methyl)piperazin-1-yl)-1-oxoisoindolin-2-yl)piperidine-2,6-dione]: the DC50 turned out to be 0.0491 nM.

`O=C1CC[C@H](N2Cc3cc(N4CCN(CC5CCN(c6ccc([C@@H]7c8ccc(O)cc8CC[C@@H]7C78CC9CC(CC(C9)C7)C8)cc6)CC5)CC4)ccc3C2=O)C(=O)N1` [Compound I-161, (S)-3-(5-(4-((1-(4-((1R,2S)-2-((3R,5R,7R)-adamantan-1-yl)-6-hydroxy-1,2,3,4-tetrahydronaphthalen-1-yl)phenyl)piperidin-4-yl)methyl)piperazin-1-yl)-1-oxoisoindolin-2-yl)piperidine-2,6-dione]: the DC50 was 8 nM.

As for `CC(C)c1ccccc1[C@H]1OCc2cc(O)ccc2[C@H]1c1ccc(N2CCC(CN3CCN(c4ccc5c(c4)CN([C@H]4CCC(=O)NC4=O)C5=O)CC3)CC2)cc1` [Compound I-351, (S)-3-(5-(4-((1-(4-((3S,4R)-7-hydroxy-3-(2-isopropylphenyl)isochroman-4-yl)phenyl)piperidin-4-yl)methyl)piperazin-1-yl)-1-oxoisoindolin-2-yl)piperidine-2,6-dione], the half-maximal degradation concentration (DC50) amounted to 0.2 nM.

Consider `O=C1CC[C@H](N2Cc3cc(N4CCN(CC5CCN(c6ccc([C@@H]7c8ccc(O)cc8CC[C@@H]7c7ccc8c(c7)CC8)cc6)CC5)CC4)ccc3C2=O)C(=O)N1` (single isomer, unassigned) [Compound I-57], for which the DC50 is 7 nM.

On to `C[C@@H]1CN(c2ccc3c(c2)CN([C@H]2CCC(=O)NC2=O)C3=O)CCN1CC1CCN(c2ccc([C@@H]3c4ccc(O)cc4CC[C@@H]3c3ccccc3)cc2)CC1` [II-2], for which the DC50 is 1 nM.

Turning to `O=C1CC[C@H](N2Cc3cc(N4CCN(CC5CC6CCC(C5)N6c5ccc([C@H]6c7ccc(O)cc7CC[C@H]6c6ccccc6)cc5)CC4)ccc3C2=O)C(=O)N1` (single isomer, unassigned) [II-56], the DC50 was 0.006 nM.

On to `C[C@H]1CN(CC2CCN(c3ccc([C@@H]4c5ccc(O)cc5CC[C@@H]4c4ccccc4)cc3)CC2)CCN1c1ccc2c(c1)CN([C@H]1CCC(=O)NC1=O)C2=O` (single isomer, unassigned) [II-10], for which the DC50 amounted to 5 nM.

For `CC(C)[C@@H]1CCc2cc(O)ccc2[C@@H]1c1ccc(N2CCC(CN3CCN(c4ccc5c(c4)CN(C4CCC(=O)NC4=O)C5=O)CC3)CC2)cc1` (stereo in doubt) [Compound I-129, (R)-3-(5-(4-((1-(4-((1S,2S)-6-hydroxy-2-isopropyl-1,2,3,4-tetrahydronaphthalen-1-yl)phenyl)piperidin-4-yl)methyl)piperazin-1-yl)-1-oxoisoindolin-2-yl)piperidine-2,6-dione], the DC50 worked out at 5 nM.

With `O=C1CCC(c2ccc(N3CC[C@@]4(CCN(CC5CCN(c6ccc([C@@H]7c8ccc(O)cc8CC[C@@H]7c7ccccc7)cc6)CC5)C4)C3)cc2)C(=O)N1` (single isomer, unassigned) [Compound I-280], the DC50 was determined as 0.76 nM.

Turning to `COc1cc(N2CCC(CN3CCN(c4ccc5c(c4)CN([C@H]4CCC(=O)NC4=O)C5=O)CC3)CC2)c(-c2ccccc2)cc1[C@@H]1CCC(F)(F)c2cc(O)ccc21` [Compound I-405, (S)-3-(5-(4-((1-(5-((R)-4,4-difluoro-6-hydroxy-1,2,3,4-tetrahydronaphthalen-1-yl)-4-methoxy-[1,1′-biphenyl]-2-yl)piperidin-4-yl)methyl)piperazin-1-yl)-1-oxoisoindolin-2-yl)piperidine-2,6-dione], the DC50 stood at 1100 nM.

For the compound `CC(C)C[C@@H]1OCc2cc(O)ccc2[C@@H]1c1ccc(N2CCC(CN3CCN(c4ccc5c(c4)CN([C@H]4CCC(=O)NC4=O)C5=O)CC3)CC2)cc1` (single isomer, unassigned) [Compound I-221], the DC50 is at least 10000 nM.

For the compound `O=C1CCC(N2Cc3cc([C@H]4CCN(CC5CCN(c6ccc([C@@H]7c8ccc(O)cc8CC[C@@H]7c7ccccc7)cc6)CC5)C[C@@H]4O)ccc3C2=O)C(=O)N1` (single isomer, unassigned) [II-107], the DC50 turned out to be 3.91 nM.

With `Cc1cc(N2CCC(CN3CCN(c4ccc5c(c4)CN([C@H]4CCC(=O)NC4=O)C5=O)CC3)CC2)ccc1[C@H]1c2ccc(O)cc2CC[C@H]1c1ccccc1` [Compound I-138, (S)-3-(5-(4-((1-(4-((1S,2R)-6-hydroxy-2-phenyl-1,2,3,4-tetrahydronaphthalen-1-yl)-3-methylphenyl)piperidin-4-yl)methyl)piperazin-1-yl)-1-oxoisoindolin-2-yl)piperidine-2,6-dione], the DC50 was at least 10000 nM.

As for `O=C1CC[C@H](N2Cc3cc(N4CCN(CC5CCN(c6ccc([C@H]7c8ccc(O)cc8CO[C@]78CCc7ccccc78)cc6)CC5)CC4)ccc3C2=O)C(=O)N1` [Compound I-267, (S)-3-(5-(4-((1-(4-((1R,4′S)-7′-hydroxy-2,3-dihydrospiro[indene-1,3′-isochroman]-4′-yl)phenyl)piperidin-4-yl)methyl)piperazin-1-yl)-1-oxoisoindolin-2-yl)piperidine-2,6-dione], the DC50 was found to be 4 nM.

For `C[C@]1(C2CCCCC2)CCc2cc(O)ccc2[C@H]1c1ccc(N2CCC(CN3CCN(c4ccc5c(c4)CN([C@H]4CCC(=O)NC4=O)C5=O)CC3)CC2)cc1` [Compound I-238, (S)-3-(5-(4-((1-(4-((1R,2R)-2-cyclohexyl-6-hydroxy-2-methyl-1,2,3,4-tetrahydronaphthalen-1-yl)phenyl)piperidin-4-yl)methyl)piperazin-1-yl)-1-oxoisoindolin-2-yl)piperidine-2,6-dione], the DC50 was determined as 4 nM.

Regarding `COc1cc(N2CCC(CN3CCN(c4ccc5c(c4)CN([C@H]4CCC(=O)NC4=O)C5=O)CC3)CC2)ccc1[C@H]1c2ccc(O)cc2CC[C@H]1C1CCCCC1` [Compound I-151, (S)-3-(5-(4-((1-(4-((1R,2S)-2-cyclohexyl-6-hydroxy-1,2,3,4-tetrahydronaphthalen-1-yl)-3-methoxyphenyl)piperidin-4-yl)methyl)piperazin-1-yl)-1-oxoisoindolin-2-yl)piperidine-2,6-dione], the DC50 came to 11 nM.

Consider `C[C@@H]1O[C@@H](c2ccccc2)[C@@H](c2ccc(N3CCC(CN4CCN(c5ccc6c(c5)CN([C@H]5CCC(=O)NC5=O)C6=O)CC4)CC3)cc2)c2ccc(O)cc21` (single isomer, unassigned) [Compound I-368], for which the DC50 was 3 nM.
